Where a name gives a salt, the structure may show the parent alone. One block for each molecule: values may come before it.
How the values were obtained:
DP I [1] = biological target: T1, DP I (Rattus norvegicus, UniProt P80067); assay: determination of second order rate constant kinact/Ki for DP I; format: biochemical; conditions: substrate Gly-Arg-pNA 1 mM and 0.5 mM
T1 construct: purchased Qiagen
Experimental: For the Ki-value determination a UV-spectrophotometer (Lambda 20, PerkinElmer, Überlingen, Germany) was used. The reaction was monitored via the p-nitroaniline released from the substrate (Gly-Arg-pNA) at λ=390 nm. DP I (1 U/mg, assay condition: Tagzyme handbook, Qiagen, Hilden, Germany) was diluted in MES-buffer (1:1000) and preincubated and activated for 30 min on crashed ice. The reaction mixture consists: 500 μl stock solution MES-buffer, 500 μl HCl*Gly-L-Arg-pNA, 250 μl inhibitor, 50 μl DP I. In order to calculate the second order rate constant (kinact/Ki) two substrate concentrations (1 mM and 0.5 mM in the incubation mixture) were combined with 6 inhibitor concentrations (5*10^−7 M to 3*10^−8 M in the assay). From the product-time-course the observed first order rate constant was determined.
Plotting 1/kobs versus substrate concentration allows the calculation of the real first order rate constant of inactivation for each inhibitor concentration at [S]=0.
Based on this equation Ki and kinact can be determined.

cathepsin H = biological target: T2, cathepsin H (Homo sapiens, UniProt P09668); assay: cross-reactivity against cathepsin H, IC50; format: biochemical; conditions: n.i. = no inhibition; for IC50: read-out: IC50 Cath. H
T2 sequence (P09668 98-335): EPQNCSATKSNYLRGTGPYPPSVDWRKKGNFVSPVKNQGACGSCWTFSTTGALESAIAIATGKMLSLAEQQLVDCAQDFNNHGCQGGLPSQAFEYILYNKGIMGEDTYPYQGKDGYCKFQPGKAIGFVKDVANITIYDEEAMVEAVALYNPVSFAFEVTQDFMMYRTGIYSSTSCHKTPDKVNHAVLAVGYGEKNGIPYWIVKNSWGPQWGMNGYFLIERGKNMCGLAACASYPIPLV
Experimental: (§1) Selected compounds, based on the general formula (II) below, were tested concerning their inhibitory potential against DP I and for their cross-reactivity against three more cysteine proteases, namely cathepsin B, H, L and another dipeptidyl peptidase, dipeptidyl peptidase IV (DP IV).

cathepsin L = cathepsin L (Homo sapiens, UniProt P07711); assay: cross-reactivity against cathepsin L, IC50; format: biochemical; conditions: n.i. = no inhibition; read-out: IC50 Cath. L
Experimental: as §1

[2] = tested on: Hep-G2 (human hepatocyte cell line); assay: cytotoxicity assay, Hep-G2 cells; format: cell-based; conditions: 24 hours incubation
Experimental: (§2) The toxicological potential of the compounds provided therein against murine cell lines is different from their toxicological potential against human cell lines. Selected compounds, based on the general formula (II) above, were tested concerning their cytotoxicological potential against the two cell-lines, L-929 (murine fibroblast cell line) and Hep-G2 (human hepatocyte cell line) cells.
(§3) HEP-G2, a human hepatocyte cell line (ACC180) and L-929, a mouse fibroplast cell line (ACC2) were grown in RPMI 1604 with 10% fetal bovine serum and 60 μg/ml gentamycin.
(§4) All cultures were fed every 2–3 days and incubated in an humified chamber at 37° C. and 5% CO2. For determining the cytotoxicity of different DPI-inhibitors, we used the CytoTox96™ Non-radioactive Cytotoxicity Assay (Promega, Madison, Wis., USA). HEP-G2 (30000 cells per well) and L-929 (20000 cells per well) were placed in 96 well plates in RPMI 1604 with 10% fetal bovine serum and grown for 24 hours. The cells were then incubated with various concentrations of different DPI-inhibitors for 24 hours in RPMI 1604 with 10% fetal bovine serum. One hour after addition of MTS-solution, the reaction was stopped by adding stop-solution of Promega. The absorbance was measured at 490 nm with a spectrophotometer. All experiments were performed twice simultaneously in three wells.

cathepsin B = cathepsin B (Homo sapiens, UniProt P07858); assay: cross-reactivity against cathepsin B, IC50; format: biochemical; conditions: n.i. = no inhibition; read-out: IC50 Cath. B
Experimental: as §1

[3] = tested on: L-929 (murine fibroblast cell line); assay: cytotoxicity assay, L-929 cells; format: cell-based; conditions: 24 hours incubation
Experimental: as §2, §3, §4

[4] = biological target: dipeptidyl peptidase IV (DP IV) (Homo sapiens, UniProt P27487); assay: cross-reactivity against dipeptidyl peptidase IV, IC50; format: biochemical; conditions: n.i. = no inhibition
Experimental: as §1

DP I [5] = biological target: T3, DP I (Rattus norvegicus, UniProt P80067); conditions: background, literature; cited from earlier work
T3 sequence (P80067 with tags, fused parts or gaps): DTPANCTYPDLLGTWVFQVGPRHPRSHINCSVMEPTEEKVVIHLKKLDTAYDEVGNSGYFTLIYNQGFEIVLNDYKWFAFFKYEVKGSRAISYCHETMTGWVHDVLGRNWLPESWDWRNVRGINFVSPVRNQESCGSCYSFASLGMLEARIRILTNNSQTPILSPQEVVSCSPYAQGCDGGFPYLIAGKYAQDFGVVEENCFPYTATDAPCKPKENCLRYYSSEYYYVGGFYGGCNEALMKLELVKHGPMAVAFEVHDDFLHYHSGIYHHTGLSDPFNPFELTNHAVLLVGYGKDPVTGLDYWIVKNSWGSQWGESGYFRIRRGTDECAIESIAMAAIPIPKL

dipeptidyl peptidase IV (DP IV), sequence (P27487 whole entry, species assumed): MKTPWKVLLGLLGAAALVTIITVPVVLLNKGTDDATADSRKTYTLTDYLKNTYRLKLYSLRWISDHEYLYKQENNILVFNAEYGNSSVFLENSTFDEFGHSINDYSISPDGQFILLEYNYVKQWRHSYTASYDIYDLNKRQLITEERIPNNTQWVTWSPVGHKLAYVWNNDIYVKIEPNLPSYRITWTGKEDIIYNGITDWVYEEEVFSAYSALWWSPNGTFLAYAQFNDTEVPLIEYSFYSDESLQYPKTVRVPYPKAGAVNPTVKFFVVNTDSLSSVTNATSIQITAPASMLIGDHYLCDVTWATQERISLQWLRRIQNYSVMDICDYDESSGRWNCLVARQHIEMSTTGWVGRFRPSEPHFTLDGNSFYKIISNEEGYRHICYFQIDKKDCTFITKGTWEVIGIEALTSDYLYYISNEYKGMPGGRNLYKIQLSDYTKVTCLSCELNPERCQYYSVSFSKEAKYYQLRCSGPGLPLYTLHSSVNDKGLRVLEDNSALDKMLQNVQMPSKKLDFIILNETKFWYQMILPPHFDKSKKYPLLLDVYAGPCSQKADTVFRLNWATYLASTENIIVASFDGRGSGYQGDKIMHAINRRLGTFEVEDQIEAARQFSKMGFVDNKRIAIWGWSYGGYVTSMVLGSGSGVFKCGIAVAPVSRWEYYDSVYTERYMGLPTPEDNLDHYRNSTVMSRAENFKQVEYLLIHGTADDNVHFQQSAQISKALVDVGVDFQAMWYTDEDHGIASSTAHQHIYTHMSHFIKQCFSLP
cathepsin L, sequence (P07711 114-333): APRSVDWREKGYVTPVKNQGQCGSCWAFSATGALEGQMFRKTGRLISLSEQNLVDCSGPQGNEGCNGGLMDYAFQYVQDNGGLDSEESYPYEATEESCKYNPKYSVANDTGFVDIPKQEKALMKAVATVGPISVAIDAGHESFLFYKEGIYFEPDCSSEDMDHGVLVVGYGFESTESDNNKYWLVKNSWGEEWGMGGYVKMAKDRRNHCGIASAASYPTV

Molecule: CC(=O)ONC(=O)[C@H](Cc1ccccc1)NC(=O)CN [compound 10, TFA*H-Gly-L-Phe-NHO-Ac]
kinact/KI (DP I [1]): 39000 M⁻¹ s⁻¹ | IC50 Cath. H (cathepsin H): n.i. | IC50 (cathepsin L): 156 µM | LD50 Hep-G2 [2]: 1.6 mg/mL | IC50 (cathepsin B): 117 µM | LD50 L-929 [3]: 4.3 mg/mL | IC50 DP IV [4]: n.i.

Molecule: NCC(=O)N[C@@H](Cc1ccccc1)C(=O)NOC(=O)c1ccccc1 [compound 11, TFA*H-Gly-L-Phe-NHO-Bz]
kinact/KI (DP I [1]): 400000 M⁻¹ s⁻¹ | IC50 Cath. H (cathepsin H): n.i. | IC50 (cathepsin L): 36.9 µM | LD50 Hep-G2 [2]: 0.8 mg/mL | IC50 (cathepsin B): 37.7 µM | LD50 L-929 [3]: 1.0 mg/mL | IC50 DP IV [4]: n.i.

Molecule: NCC(=O)N[C@@H](Cc1ccccc1)C(=O)NOC(=O)c1ccc([N+](=O)[O-])cc1 [compound 13, TFA*H-Gly-L-Phe-NHO-Bz-p-NO2]
kinact/KI (DP I [1]): 79000 M⁻¹ s⁻¹ | IC50 (cathepsin H): 34.7 µM | IC50 (cathepsin L): 7.32 µM | LD50 Hep-G2 [2]: 0.8 mg/mL | IC50 (cathepsin B): 5.31 µM | LD50 L-929 [3]: 2.3 mg/mL | IC50 DP IV [4]: n.i.

kinact/KI (DP I [1]): 19000 M⁻¹ s⁻¹ | IC50 (cathepsin H): 154 µM | IC50 (cathepsin L): 33.1 µM | IC50 (cathepsin B): 34 µM | IC50 DP IV [4]: n.i.
Molecule: Cc1ccc(C(=O)ONC(=O)[C@H](Cc2ccccc2)NC(=O)CN)cc1 [compound 12, TFA*H-Gly-L-Phe-NHO-Bz-p-CH3]

Molecule: CC(C)C[C@H](NC(=O)[C@H]1O[C@@H]1C(=O)O)C(=O)NCCCCN=C(N)N [E-64, reference compound]
inhibition of DP I (in words) (DP I [5]): weak inhibition

melting point: 69 to 71 °C
Molecule: CNCC(=O)N[C@@H](Cc1ccccc1)C(=O)NOC(=O)c1ccccc1 (as salt: TFA) [compound 14, TFA*H-Sar-L-Phe-NHO-Bz]

melting point: 98 to 101 °C
Molecule: Cc1ccc(C(=O)ONC(=O)[C@H](Cc2ccccc2)NC(=O)CN)cc1 (as salt: TFA) [compound 12, TFA*H-Gly-L-Phe-NHO-Bz-p-CH3]

Molecule: CC(=O)N[C@@H](CC(C)C)C(=O)N[C@@H](CC(C)C)C(=O)N[C@H](C=O)CCCNC(=N)N [leupeptin, reference compound]
inhibition of DP I (in words) (DP I [5]): weak inhibition

kinact/KI (DP I [1]): 140000 M⁻¹ s⁻¹ | IC50 (cathepsin H): 205 µM | IC50 (cathepsin L): 4.61 µM | IC50 (cathepsin B): 41.8 µM | IC50 DP IV [4]: n.i.
Molecule: CNCC(=O)N[C@@H](Cc1ccccc1)C(=O)NOC(=O)c1ccccc1 [compound 14, TFA*H-Sar-L-Phe-NHO-Bz]

B1: stefin A (protein, UniProt P01040 1-98, looked up)
Cystatin-A: MIPGGLSEAKPATPEIQEIVDKVKPQLEEKTNETYGKLEAVQYKTQVVAGTNYYIKVRAGDNKYMHLKVFKSLPGQNEDLVLTGYQVDKNKDDELTGF
inhibition of DP I (in words) (DP I [5]): Stronger reversible inhibitors

B2: chicken cystatin (protein, UniProt P01038 24-139, looked up)
Cystatin: SEDRSRLLGAPVPVDENDEGLQRALQFAMAEYNRASNDKYSSRVVRVISAKRQLVSGIKYILQVEIGRTTCPKSSGDLQSCEFHDEPEMAKYTTCTFVVYSIPWLNQIKLLESKCQ
inhibition of DP I (in words) (DP I [5]): Stronger reversible inhibitors

Source: patent US7144856B2, “Inhibitors of dipeptidyl peptidase I” (Probiodrug AG, priority 2001, dated 2006)
